Measured values as given in patent US12558343B2, “Medical use of icaritin” (Lunan Pharmaceutical Group Corporation, priority 2020, dated 2026).
Like-named read-outs stand apart in the source and are kept apart here.

Columns and labels:
[1] = test system: hemorrhagic transformation model induced by clopidogrel combined with cerebral ischemia-reperfusion; assay: Hemorrhagic transformation after cerebral ischemia-reperfusion (MCAO) caused by clopidogrel, bleeding rate; format: in vivo, ICR mice; conditions: for Number of animals with cerebral hemorrhage: 24 h after MCAO; for Bleeding rate %: model group 80.0
Method: (§1) 5-week-old ICR male mice were fed to 6-week-old and divided into a control group, a model group, an icaritin-3 mg/kg group, an icaritin-6 mg/kg group, an icaritin-12 mg/kg group, and an icariin-12 mg/kg group according to body weight. From day 1 to day 3 after the grouping, the mice in each icaritin group were separately intragastrically administrated with 3, 6, and 12 mg/kg of icaritin and the mice in the icariin group was intragastrically administrated with 12 mg/kg of icariin once a day, and the mice in other groups were intragastrically administrated with a corresponding vehicle; and except the control group, the mice in other groups were intragastrically administrated with aspirin (100 mg/kg) or clopidogrel (15 mg/kg) once a day at a volume of 10 mL/kg.
(§2) On day 3, 10 min after the administration, the mice were anesthetized by intraperitoneal injection of 70 mg/kg of pentobarbital sodium and subjected to a cerebral ischemia-reperfusion (middle cerebral artery occlusion, MCAO) surgery with ischemia for 1 h and reperfusion for 23 h.
(§3) 24 h after the surgery was an end point of the experiment.
(§4) Bleeding rate: the mice were anesthetized by intraperitoneal injection of 70 mg/kg of pentobarbital sodium, a brain tissue was taken out, cerebral hemorrhage was recorded and a bleeding rate of the mice in each group was calculated. Cerebral hemorrhage rate %=number of animals with cerebral hemorrhage/number of surviving animals in each group×100.

[2] = test system: IX-knockout mice with hemophilia; assay: Tail-cut bleeding time of coagulation factor IX-knockout mice with hemophilia; format: in vivo
Method: One hour after the last administration, the tails of the mice were cut and bleeding time of each mouse was measured.

[3] = test system: prolonged bleeding time caused by aspirin; assay: Tail-cut bleeding time in mice, prolonged by aspirin; format: in vivo, ICR mice; conditions: aspirin 20 mg/kg i.g.
Method: According to the body weight on the last day of the quarantine, the male and female animals were divided into six groups by a simplified random method, namely, a normal group (C), a model group (V), icaritin low-, medium- and high-dose groups (2, 6, and 18 mg/kg, L, M, H) and a positive control drug group (200 mg/kg of etamsylate, P).
(§5) After 15 min of the modeling, the tails of the mice were cut and bleeding time of each mouse was measured.

[4] = Blood routine examination of rats before/after icaritin (Efficacy Example 1); format: in vivo, SD rats
Method: Twenty-four rats were taken and divided into 3 groups with 8 rats in each group. […] 1.0 mL of blood was collected from the orbits before administration and 20 min after a last administration, wherein 0.5 mL was used for a blood routine examination and 0.5 mL was used to prepare anticoagulated blood. The blood was treated and analyzed on the flow cytometer according to the detection method of platelet activation by flow cytometry. An activation rate of platelets activated by adenosine diphosphate (basic value) before administration and an activation rate of platelets activated by adenosine diphosphate after administration were compared. At the same time, 50 μL of anticoagulated blood was taken from the rats before administration, adenosine diphosphate was not added, and a spontaneous activation rate of the anticoagulated blood of animals was measured using the same method. The animals were fasted for 16-24 h before each blood sampling.

[5] = test system: platelet aggregation induced by adenosine diphosphate; assay: In-vitro platelet aggregation in platelet-rich plasma induced by adenosine diphosphate; format: cell-based, domestic rabbits; conditions: rabbit PRP, ADP 25 μmol/L, vs 1% dimethyl sulfoxide control
Method: After domestic rabbits were locally anesthetized with procaine, common carotid artery was surgically separated, blood was collected and anticoagulated with 3.8% sodium citrate, the anticoagulated blood was centrifuged at 800 r/min for 10 min to prepare platelet-rich plasma (PRP), the remaining part was centrifuged at […] for 10 min to prepare platelet-poor plasma (PPP), and a platelet aggregation experiment was performed. 265 μL of PRP and 30 μL of icaritin were added to a test tube (to enable final concentrations of the icaritin to be 0.1 mmol/L, 0.5 mmol/L, and 5 mmol/L separately), incubation was performed for 5 min, 5 μL of adenosine diphosphate (at a final concentration of 25 μmol/L) was added as an inducer, and a maximum aggregation rate within 5 min was observed and recorded. 1% by mass of dimethyl sulfoxide was used as a control and a promoting effect of the icaritin of each concentration on platelet aggregation induced by adenosine diphosphate was observed.

[6] = test system: prolonged bleeding time caused by heparin sodium; assay: Tail-cut bleeding time in mice, prolonged by heparin sodium; format: in vivo, ICR mice; conditions: heparin sodium 150 U/kg i.v.
From the text: 72 ICR mice aged 5-6 weeks, weighing 19-21 g, and half male and half female were selected. The mice were quarantined for 7 days after entering a laboratory and healthy mice were selected as test animals. The mice were weighed on first and last days of quarantine. According to the body weight on the last day of the quarantine, the male and female animals were divided into six groups by a simplified random method, namely, a normal group (C), a model group (V), low-, medium- and high-dose icaritin groups (2, 6, and 18 mg/kg, L, M, H) and a positive control drug group (200 mg/kg of etamsylate, P).
as §5

[7] = test system: hemorrhagic transformation model induced by aspirin combined with cerebral ischemia-reperfusion; assay: Hemorrhagic transformation after cerebral ischemia-reperfusion (MCAO) caused by aspirin, bleeding rate; format: in vivo, ICR mice; conditions: for Number of animals with cerebral hemorrhage: 24 h after MCAO; for Bleeding rate %: model group 85.7
Method: as §1, §2, §3, §4

[8] = mouse, in vivo
Method: After the grouping, the mice in the normal group and the model group were intragastrically administrated with 10 ml/kg of an icaritin solvent which was prepared by adding 12 g of hypromellose E5 and 0.1 g of sodium lauryl sulfate into 1 L of water. […] One hour after the last pre-administration, the mice in the model group and each administration group were injected with 150 U/kg of a heparin sodium injection through a tail vein to establish a model, and the mice in the normal group were injected with 10 ml/kg of a sodium chloride injection through a tail vein.
After the bleeding time was detected, the mice were anesthetized with sodium pentobarbital, blood was collected from an abdominal cardinal vein, and indicators of blood routine examination and four coagulation indicators (prothrombin time, thromboplastin time, thrombin time, and fibrinogen) were detected.

[9] = group H, 18 mg/kg i.g. once a day 5 days
[10] = group L, 2 mg/kg i.g. once a day 5 days, tail cut 15 min after modeling
[11] = group M, 6 mg/kg i.g. once a day 5 days

## COc1ccc(-c2oc3c(CC=C(C)C)c(O)cc(O)c3c(=O)c2O)cc1 [Icaritin]
[1]; 3 mg/kg i.g. Day 1-3 with clopidogrel 15 mg/kg, of 7 animals
  Number of animals with cerebral hemorrhage: 3
[1]; 3 mg/kg i.g. Day 1-3 with clopidogrel 15 mg/kg
  Bleeding rate %: 42.9%
[1]; 6 mg/kg i.g. Day 1-3 with clopidogrel 15 mg/kg, of 8 animals
  Number of animals with cerebral hemorrhage: 2
[1]; 6 mg/kg i.g. Day 1-3 with clopidogrel 15 mg/kg
  Bleeding rate %: 25.0%
[1]; 12 mg/kg i.g. Day 1-3 with clopidogrel 15 mg/kg, of 8 (icaritin) or 7 (icariin) animals
  Number of animals with cerebral hemorrhage: 2
[1]; 12 mg/kg i.g. Day 1-3 with clopidogrel 15 mg/kg
  Bleeding rate %: 25.0%
[2]; group B, 3 mg/kg i.g. once a day 11 days, 1 h after last administration, control 37.8 ± 12.4
  Bleeding time: 25.5 ± 8.9 min
[2]; group C, 6 mg/kg i.g. once a day 11 days
  Bleeding time: 20.4 ± 6.9 min
[2]; group D, 18 mg/kg i.g. once a day 11 days
  Bleeding time: 16.5 ± 9.7 min
[3]; [9]
  Bleeding time: 16.7 ± 7.2^$ $ & min
[3]; [10]
  Bleeding time: 28.4 ± 9.8^$ min
[3]; [11]
  Bleeding time: 24.7 ± 7.3^$ min
[4]; 3 mg/kg i.g. 3 days
  Concentration of hemoglobin: 180500 ± 11200 µg/mL
  Number of erythrocytes: 7.213 ± 0.554 10^12/L
  Number of leukocytes: 1.832 ± 0.154 10^9/L
  Number of platelets: 1124 ± 209 10^9/L
[4]; 6 mg/kg i.g. 3 days
  Concentration of hemoglobin: 179000 ± 9200 µg/mL
  Number of erythrocytes: 6.783 ± 0.871 10^12/L
  Number of leukocytes: 1.653 ± 0.421 10^9/L
  Number of platelets: 1397 ± 143 10^9/L
[4]; 18 mg/kg i.g. 3 days
  Concentration of hemoglobin: 181600 ± 9500 µg/mL
  Number of erythrocytes: 7.235 ± 0.656 10^12/L
  Number of leukocytes: 1.761 ± 0.335 10^9/L
  Number of platelets: 1249 ± 166 10^9/L
[5]; 0.1 mmol/L
  Aggregation-promoting rate: 23.3 ± 4.5%
[5]; 0.5 mmol/L
  Aggregation-promoting rate: 38.9 ± 8.7%
[5]; 5 mmol/L
  Aggregation-promoting rate: 52.2 ± 9.0%
[6]; [9]
  Bleeding time: 15.9 ± 6.6^$ $ & min
[6]; [10]
  Bleeding time: 26.4 ± 8.8^$ min
[6]; [11]
  Bleeding time: 22.7 ± 9.1^$ min
[7]; 3 mg/kg i.g. Day 1-3 with aspirin 100 mg/kg, of 8 animals
  Number of animals with cerebral hemorrhage: 3
[7]; 3 mg/kg i.g. Day 1-3 with aspirin 100 mg/kg
  Bleeding rate %: 37.5%
[7]; 6 mg/kg i.g. Day 1-3 with aspirin 100 mg/kg, of 8 animals
  Number of animals with cerebral hemorrhage: 2
[7]; 6 mg/kg i.g. Day 1-3 with aspirin 100 mg/kg
  Bleeding rate %: 25.0%
[7]; 12 mg/kg i.g. Day 1-3 with aspirin 100 mg/kg, of 9 (icaritin) or 8 (icariin) animals
  Number of animals with cerebral hemorrhage: 2
[7]; 12 mg/kg i.g. Day 1-3 with aspirin 100 mg/kg
  Bleeding rate %: 22.2%
[8]; 2 mg/kg
  Fibrinogen: 1.83 ± 0.22 g/L
  Prothrombin time: 10.12 ± 1.34 s
  Thrombin time: 22.23 ± 2.01 s
  Thromboplastin time: 25.19 ± 1.90 s
[8]; 6 mg/kg
  Fibrinogen: 1.82 ± 0.56 g/L
  Prothrombin time: 11.23 ± 1.45 s
  Thrombin time: 24.09 ± 1.99 s
  Thromboplastin time: 25.09 ± 2.22 s
[8]; 18 mg/kg
  Fibrinogen: 2.01 ± 0.52 g/L
  Prothrombin time: 9.98 ± 1.23 s
  Thrombin time: 25.54 ± 1.78 s
  Thromboplastin time: 24.55 ± 2.66 s
